For assay [1], the target named is human V1a receptor (Homo sapiens (Human), UniProt P37288). In words: Cellular in vitro assay for determining vasopressin receptor activity (V1a, aequorin luminescence). It is filed as cell-based. Particulars: for IC50: CHO cell line transfected with human V1a receptor, [Arg8]-vasopressin at EC50 concentration, read-out: IC50 hV1a; for ratio IC50 hV2/hV1a: selectivity, IC50 hV2 divided by IC50 hV1a.

The target of assay [2] is human V2 receptor (Homo sapiens (Human), UniProt P30518). Description: Cellular in vitro assay for determining vasopressin receptor activity (V2, CRE-luciferase). The assay is classed as cell-based. Particulars: CHO cell line transfected with human V2 receptor; [Arg8]-vasopressin at EC50 concentration; read-out: IC50 hV2.
human V2 receptor, sequence (P30518 whole entry): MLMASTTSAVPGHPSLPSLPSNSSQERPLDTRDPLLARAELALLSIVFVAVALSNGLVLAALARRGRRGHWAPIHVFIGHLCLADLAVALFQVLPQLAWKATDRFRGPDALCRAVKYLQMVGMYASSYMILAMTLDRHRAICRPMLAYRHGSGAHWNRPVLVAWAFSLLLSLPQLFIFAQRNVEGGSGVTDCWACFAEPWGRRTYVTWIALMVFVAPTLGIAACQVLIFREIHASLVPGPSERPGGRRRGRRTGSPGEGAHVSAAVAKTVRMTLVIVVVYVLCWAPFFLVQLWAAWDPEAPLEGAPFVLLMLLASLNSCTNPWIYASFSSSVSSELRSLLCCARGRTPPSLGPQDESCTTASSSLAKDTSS

Each structure is given as a SMILES string.

These results are taken from US11149023B2, “Substituted triazole derivatives and uses thereof” (Bayer Pharma Aktiengesellschaft, priority 2017, dated 2021).

human V1a receptor, sequence (P37288 whole entry): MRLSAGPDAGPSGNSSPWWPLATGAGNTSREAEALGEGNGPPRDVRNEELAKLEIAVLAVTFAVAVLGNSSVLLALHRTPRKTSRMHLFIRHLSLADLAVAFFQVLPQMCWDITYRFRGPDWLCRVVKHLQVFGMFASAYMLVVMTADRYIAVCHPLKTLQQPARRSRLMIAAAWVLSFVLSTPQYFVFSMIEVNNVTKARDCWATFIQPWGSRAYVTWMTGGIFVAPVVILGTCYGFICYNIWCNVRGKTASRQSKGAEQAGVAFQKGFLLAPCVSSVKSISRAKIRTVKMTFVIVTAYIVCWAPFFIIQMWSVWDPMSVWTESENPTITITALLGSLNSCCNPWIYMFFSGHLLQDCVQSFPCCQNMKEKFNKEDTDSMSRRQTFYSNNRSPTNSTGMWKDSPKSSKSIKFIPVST

Consider `CC(C)(C)OC(=O)N1CCC(C(=O)NC(Cn2c(-c3ccc(Cl)cc3)nn(Cc3ncn(-c4ncccc4Cl)n3)c2=O)C(F)(F)F)C1` (stereo not shown) [Example 23, tert-Butyl 3-({3-[3-(4-chlorophenyl)-1-{[1-(3-chloropyridin-2-yl)-1H-1,2,4-triazol-3-yl]methyl}-5-oxo-1,5-dihydro-4H-1,2,4-triazol-4-yl]-1,1,1-trifluoropropan-2-yl}carbamoyl)pyrrolidine-1-carboxylate], for which the concentration for half-maximal inhibition (IC50) in assay [1] was found to be 1.01 nM; in assay [2] it was 72.5 nM.

For `Cl.O=C(NC(Cn1c(-c2ccc(Cl)cc2)nn(Cc2ncn(-c3ncccc3C(F)(F)F)n2)c1=O)C(F)(F)F)C1NCC1(F)F` (stereo not shown) [Example 69, N-{3-[3-(4-Chlorophenyl)-5-oxo-1-({1-[3-(trifluoromethyl)pyridin-2-yl]-1H-1,2,4-triazol-3-yl}methyl)-1,5-dihydro-4H-1,2,4-triazol-4-yl]-1,1,1-trifluoropropan-2-yl}-3,3-difluoroazetidine-2-carboxamide], in assay [1], the IC50 is 1.95 nM and the “ratio IC50 hV2/hV1a” value is recorded as 51.8. In addition, the IC50 in assay [2] amounted to 101 nM.

Turning to `O=C(NC(Cn1c(-c2ccc(Cl)cc2)nn(Cc2ncn(-c3ncccc3Cl)n2)c1=O)C(F)(F)F)[C@@H]1C[C@@H](F)CN1` (mixture of isomers) [Example 49, N-{3-[3-(4-Chlorophenyl)-1-{[1-(3-chloropyridin-2-yl)-1H-1,2,4-triazol-3-yl]methyl}-5-oxo-1,5-dihydro-4H-1,2,4-triazol-4-yl]-1,1,1-trifluoropropan-2-yl}-4-fluoro-prolinamide], the IC50 amounted to 3.35 nM in assay [1] and 378 nM in assay [2].

As to `O=C1CC[C@@H](C(=O)NC(Cn2c(-c3ccc(Cl)cc3)nn(Cc3ncn(-c4ncccc4Cl)n3)c2=O)C(F)(F)F)N1` (single isomer, unassigned) [Example 37, N-{3-[3-(4-Chlorophenyl)-1-{[1-(3-chloropyridin-2-yl)-1H-1,2,4-triazol-3-yl]methyl}-5-oxo-1,5-dihydro-4H-1,2,4-triazol-4-yl]-1,1,1-trifluoropropan-2-yl}-5-oxo-L-prolinamide], the IC50 in assay [1] turned out to be 295 nM; in assay [2], 32000 nM. Moreover, the “ratio IC50 hV2/hV1a” value in assay [1] worked out at 108.5.

The term IC50 denotes the concentration that gives 50% inhibition.
